According to patent US4156777A, “Process for producing glucopyranose-nitrosourea compounds and novel compounds included therein” (Tokyo Tanabe Company, Limited, priority 1977, dated 1979):
In brackets after ≈: the same amount, converted by molar mass.

Legend:
[1] = Solubility in water at 25° C.; assay type: physicochemical
leukemia L-1210 = assay: Antitumor activity against leukemia L-1210 implanted in BDF1 mice (ILS, 60 days survivors); assay type: in vivo
Text: Test compounds were given to BDF1 mice 24 hrs after implantation of 10^6 cells of leukemia L-1210 in each animal, through single intraperitoneal administration, intraperitoneal administration for 5 successive days, single oral administration or oral administration for 5 successive days, whereupon the increase in life span (referred to as "ILS") and number of 60 days survivors of test animals were estimated, said test of antitumor activity being that according to the method of the National Cancer Center, Tokyo [A. Hoshi et al: Farmashia, 9 (1973), 464]. In the tests, the compounds were dissolved in physiological saline solution just before administration.
^a i.p.: intraperitoneal administration p.o: oral administration
D1 : single administration D1~5 : administration for 5
^b percentage calculated from mean survival time over control
^c survivors/six animals

Structure (SMILES): O=NN(CCCl)C(=O)NC[C@H]1OC(O)[C@H](O)[C@@H](O)[C@@H]1O (stereo partly drawn) [Example 6DCNU, 3-(D-glucopyranos-6-yl)-1-(2-chloroethyl)-1-nitrosourea]
- solubility ([1]; amount soluble in 1 ml water at 25° C.): 750 mg/mL (≈ 2390 mM)
- solubility in water, comparison in words ([1]; water, 25° C.): higher than that of both DCNU and 2MCαG and is almost equal to that of 6MCαG
- ILS (leukemia L-1210; 3.2 mg/kg/day, i.p. D1~5): > 310%
- Survivors (60 days) (leukemia L-1210; 3.2 mg/kg/day, i.p. D1~5): 2/6
- ILS (leukemia L-1210; 6.3 mg/kg/day, i.p. D1~5): > 410%
- Survivors (60 days) (leukemia L-1210; 6.3 mg/kg/day, i.p. D1~5): 4/6
- ILS (leukemia L-1210; 12.5 mg/kg/day, i.p. D1): > 426%
- Survivors (60 days) (leukemia L-1210; 12.5 mg/kg/day, i.p. D1): 4/6
- ILS (leukemia L-1210; 12.5 mg/kg/day, i.p. D1~5): > 520%
- Survivors (60 days) (leukemia L-1210; 12.5 mg/kg/day, i.p. D1~5): 5/6
- ILS (leukemia L-1210; 12.5 mg/kg/day, p.o. D1~5): > 123%
- ILS (leukemia L-1210; 15.0 mg/kg/day, i.p. D1~5): > 650%
- Survivors (60 days) (leukemia L-1210; 15.0 mg/kg/day, i.p. D1~5): 6/6
- ILS (leukemia L-1210; 20.0 mg/kg/day, i.p. D1~5): > 670%
- Survivors (60 days) (leukemia L-1210; 20.0 mg/kg/day, i.p. D1~5): 6/6
- ILS (leukemia L-1210; 25.0 mg/kg/day, i.p. D1): > 561%
- Survivors (60 days) (leukemia L-1210; 25.0 mg/kg/day, i.p. D1): 5/6
- ILS (leukemia L-1210; 25.0 mg/kg/day, i.p. D1~5): > 540%
- Survivors (60 days) (leukemia L-1210; 25.0 mg/kg/day, i.p. D1~5): 5/6
- ILS (leukemia L-1210; 25.0 mg/kg/day, p.o. D1~5): > 260%
- Survivors (60 days) (leukemia L-1210; 25.0 mg/kg/day, p.o. D1~5): 2/6
- ILS (leukemia L-1210; 30.0 mg/kg/day, i.p. D1~5): > 315%
- Survivors (60 days) (leukemia L-1210; 30.0 mg/kg/day, i.p. D1~5): 3/6
- ILS (leukemia L-1210; 35.0 mg/kg/day, p.o. D1~5): > 390%
- Survivors (60 days) (leukemia L-1210; 35.0 mg/kg/day, p.o. D1~5): 3/6
- ILS (leukemia L-1210; 40.0 mg/kg/day, i.p. D1~5): > 225%
- Survivors (60 days) (leukemia L-1210; 40.0 mg/kg/day, i.p. D1~5): 2/6
- ILS (leukemia L-1210; 50.0 mg/kg/day, i.p. D1): > 606%
- Survivors (60 days) (leukemia L-1210; 50.0 mg/kg/day, i.p. D1): 5/6
- ILS (leukemia L-1210; 50.0 mg/kg/day, p.o. D1~5): > 442%
- Survivors (60 days) (leukemia L-1210; 50.0 mg/kg/day, p.o. D1~5): 3/6
- ILS (leukemia L-1210; 70.0 mg/kg/day, i.p. D1): > 321%
- Survivors (60 days) (leukemia L-1210; 70.0 mg/kg/day, i.p. D1): 3/6
- ILS (leukemia L-1210; 70.0 mg/kg/day, p.o. D1~5): > 370%
- Survivors (60 days) (leukemia L-1210; 70.0 mg/kg/day, p.o. D1~5): 3/6
- ILS (leukemia L-1210; 100.0 mg/kg/day, i.p. D1): -3%
- ILS (leukemia L-1210; 100.0 mg/kg/day, p.o. D1~5): > 246%
- Survivors (60 days) (leukemia L-1210; 100.0 mg/kg/day, p.o. D1~5): 2/6
- ILS (leukemia L-1210; 150.0 mg/kg/day, i.p. D1): -10%
- ILS (leukemia L-1210; 200.0 mg/kg/day, i.p. D1): -34%
- antitumor activity, comparison in words (leukemia L-1210; L-1210, BDF1 mice): superior to that of DCNU, GANU and 2MCαG, and is almost equal to that of 6MCαG
- antitumor activity, in words (leukemia L-1210; mouse, in vivo): excellent antitumor activity
- antitumor activity in oral administration, in words (leukemia L-1210; oral administration): high activity equal to that of 6MCαG in oral administration
